Reference: patent publication US20080182811A1, “METABOTROPIC GLUTAMATE RECEPTOR ACTIVATOR” (Ajinomoto Co., Inc., priority 2005, published 2008)
One block for each compound: values may come before it.

Biological target: T1, group II metabotropic glutamate receptor subtype 3 (mGluR3) (Homo sapiens, UniProt Q14832)
T1 construct: expressed in transfected cells; host or cells: Xenopus oocytes injected with cRNAs of mGluR3, GIRK1 and GIRK4
Assay: Electrophysiological measurement of response current in Xenopus oocytes injected with mGluR3, GIRK1 and GIRK4 cRNAs
Format: cell-based
Details: for mgluR3 (receptor activation by amino acid): amino acid alone, 1 mM, oocytes injected with mGluR3, GIRK1, GIRK4 cRNAs

T1 sequence (Q14832 23-879): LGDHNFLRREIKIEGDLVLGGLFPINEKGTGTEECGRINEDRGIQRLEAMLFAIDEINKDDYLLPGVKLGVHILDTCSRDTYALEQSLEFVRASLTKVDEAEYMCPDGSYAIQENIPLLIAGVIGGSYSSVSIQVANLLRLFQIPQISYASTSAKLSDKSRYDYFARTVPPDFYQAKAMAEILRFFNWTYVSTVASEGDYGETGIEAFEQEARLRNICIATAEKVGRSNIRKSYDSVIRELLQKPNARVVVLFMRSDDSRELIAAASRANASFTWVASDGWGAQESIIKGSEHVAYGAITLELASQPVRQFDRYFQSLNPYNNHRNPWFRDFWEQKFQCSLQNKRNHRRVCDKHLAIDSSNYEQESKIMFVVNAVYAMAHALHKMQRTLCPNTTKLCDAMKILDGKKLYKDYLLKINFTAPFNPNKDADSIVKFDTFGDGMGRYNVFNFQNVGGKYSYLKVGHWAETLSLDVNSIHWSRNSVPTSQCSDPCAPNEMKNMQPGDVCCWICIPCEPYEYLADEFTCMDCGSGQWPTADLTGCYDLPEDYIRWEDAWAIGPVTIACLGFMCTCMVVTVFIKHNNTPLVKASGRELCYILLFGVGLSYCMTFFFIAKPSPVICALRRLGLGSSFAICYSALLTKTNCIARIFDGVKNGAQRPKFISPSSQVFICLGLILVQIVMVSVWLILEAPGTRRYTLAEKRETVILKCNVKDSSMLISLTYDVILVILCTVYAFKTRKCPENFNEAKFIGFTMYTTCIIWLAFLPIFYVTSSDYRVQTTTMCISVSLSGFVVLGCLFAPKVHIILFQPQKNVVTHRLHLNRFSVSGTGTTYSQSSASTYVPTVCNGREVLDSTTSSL

- mgluR3 (receptor activation by amino acid): Activated
- mgluR3 (receptor activation by amino acid) (listed as leucine): effects of enhancing the activation
- effect of amino acid (response current value) with cation vs amino acid alone (coexistence with calcium ion (10 mM), glutamic acid 3 μM, aspartic acid 300 μM, leucine 1 mM, cysteine 1 mM, FIG. 7): enhanced
- effect of amino acid (response current value) with nucleic acid and cation vs amino acid alone (coexistence with inosinic acid (1 mM) and calcium ion (10 mM), glutamic acid 3 μM, aspartic acid 300 μM, leucine 1 mM, cysteine 1 mM, FIG. 8): enhanced
- effect of amino acid (response current value) with nucleic acid vs amino acid alone (coexistence with inosinic acid (1 mM), glutamic acid 3 μM, aspartic acid 300 μM, valine 1 mM, leucine 1 mM, FIG. 6): enhanced
SMILES: CC(C)C[C@H](N)C(=O)O [Leucine, leucine]

- mgluR3 (receptor activation by amino acid): Activated
- mgluR3 (receptor activation by amino acid) (listed as histidine): effects of enhancing the activation
SMILES: N[C@@H](Cc1c[nH]cn1)C(=O)O [Histidine, histidine]

- mgluR3 (receptor activation by amino acid): Activated
- mgluR3 (receptor activation by amino acid) (listed as methionine): effects of enhancing the activation
SMILES: CSCC[C@H](N)C(=O)O [Methionine, methionine]

- mgluR3 (receptor activation by amino acid): Activated
- mgluR3 (receptor activation by amino acid) (listed as proline): effects of enhancing the activation
SMILES: O=C(O)[C@@H]1CCCN1 [Proline, proline]

- mgluR3 (receptor activation by amino acid): Activated
- mgluR3 (receptor activation by amino acid) (listed as threonine): effects of enhancing the activation
SMILES: C[C@@H](O)[C@H](N)C(=O)O [Threonine, threonine]

- mgluR3 (receptor activation by amino acid): Activated
- mgluR3 (receptor activation by amino acid) (listed as taurine): effects of enhancing the activation
SMILES: NCCS(=O)(=O)O [Taurine, taurine]

- mgluR3 (receptor activation by amino acid): Activated
- mgluR3 (receptor activation by amino acid) (listed as isoleucine): effects of enhancing the activation
SMILES: CC[C@H](C)[C@H](N)C(=O)O [Isoleucine, isoleucine]

- mgluR3 (receptor activation by amino acid): Activated
- mgluR3 (receptor activation by amino acid) (listed as phenylalanine): effects of enhancing the activation
SMILES: N[C@@H](Cc1ccccc1)C(=O)O [Phenylalanine, phenylalanine]

Further lines, the compound ahead of its results:

SMILES: NCC(=O)O [Glycine, glycine]
- mgluR3 (receptor activation by amino acid): Activated
- mgluR3 (receptor activation by amino acid) (listed as glycine): effects of enhancing the activation

SMILES: N[C@@H](Cc1ccc(O)cc1)C(=O)O [Tyrosine, tyrosine]
- mgluR3 (receptor activation by amino acid): Activated
- mgluR3 (receptor activation by amino acid) (listed as tyrosine): effects of enhancing the activation

SMILES: NC(=O)C[C@H](N)C(=O)O [Asparagine, asparagine]
- mgluR3 (receptor activation by amino acid): Activated
- mgluR3 (receptor activation by amino acid) (listed as asparagine): effects of enhancing the activation

SMILES: C[C@H](N)C(=O)O [Alanine, alanine]
- mgluR3 (receptor activation by amino acid): Activated
- mgluR3 (receptor activation by amino acid) (listed as alanine): effects of enhancing the activation

SMILES: NCCC[C@H](N)C(=O)O [Ornithine, ornithine]
- mgluR3 (receptor activation by amino acid): Activated
- mgluR3 (receptor activation by amino acid) (listed as ornithine): effects of enhancing the activation

SMILES: NCCCC[C@H](N)C(=O)O [Lysine, lysine]
- mgluR3 (receptor activation by amino acid): Activated
- mgluR3 (receptor activation by amino acid) (listed as lysine): effects of enhancing the activation

SMILES: O=C(O)[C@@H]1C[C@@H](O)CN1 [Hydroxyproline, hydroxyproline]
- mgluR3 (receptor activation by amino acid): Activated
- mgluR3 (receptor activation by amino acid) (listed as hydroxyproline): effects of enhancing the activation

SMILES: N=C(N)NCCC[C@H](N)C(=O)O [Arginine, arginine]
- mgluR3 (receptor activation by amino acid): Activated
- mgluR3 (receptor activation by amino acid) (listed as arginine): effects of enhancing the activation

SMILES: N[C@@H](Cc1c[nH]c2ccccc12)C(=O)O [Tryptophan, tryptophan]
- mgluR3 (receptor activation by amino acid): Activated
- mgluR3 (receptor activation by amino acid) (listed as tryptophan): effects of enhancing the activation

SMILES: N[C@@H](CO)C(=O)O [Serine, serine]
- mgluR3 (receptor activation by amino acid): Activated
- mgluR3 (receptor activation by amino acid) (listed as serine): effects of enhancing the activation

SMILES: NC(=O)CC[C@H](N)C(=O)O [Glutamine, glutamine]
- mgluR3 (receptor activation by amino acid): Activated
- mgluR3 (receptor activation by amino acid) (listed as glutamine): effects of enhancing the activation
